The target in the assay is T1, Adenosine deaminase (Bos taurus, UniProt P56658).
T1 sequence (P56658 whole entry): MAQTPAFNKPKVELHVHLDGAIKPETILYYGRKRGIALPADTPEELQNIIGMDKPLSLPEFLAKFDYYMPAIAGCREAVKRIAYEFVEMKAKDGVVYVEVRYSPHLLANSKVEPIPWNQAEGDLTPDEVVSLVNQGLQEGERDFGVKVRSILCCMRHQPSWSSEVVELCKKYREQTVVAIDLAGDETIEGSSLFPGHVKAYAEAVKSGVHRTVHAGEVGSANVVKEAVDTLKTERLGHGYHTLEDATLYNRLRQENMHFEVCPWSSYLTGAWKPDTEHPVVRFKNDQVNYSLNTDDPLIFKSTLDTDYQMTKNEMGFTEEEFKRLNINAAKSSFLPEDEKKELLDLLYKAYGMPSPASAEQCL
As to the kind of experiment: Binding affinity towards calf spleen adenosine deaminase was determined.

The values that follow come from ChEMBL document CHEMBL1148406, “Inhibition of adenosine deaminase by novel 5:7 fused heterocycles containing the imidazo[4,5-e][1,2,4]triazepine ring system: a structure-activity relationship study” (J Med Chem, 2004).

The structures appear in SMILES notation.

The term Ki denotes a dissociation constant, usually derived from enzyme kinetics or from competition with a known ligand. In turn, `COc1ccc(COC2c3c(ncn3Cc3ccc(OC)cc3)N=CN(C)N2C)cc1` (stereo not drawn) displayed an inhibitory constant (Ki) of 77 µM.
For the molecule `CCCOC1c2c(ncn2Cc2ccc(OC)cc2)N=CN(C)N1C` (stereo not drawn), the affinity corresponds to a Ki of 12 µM.
With `CCOC1c2c(ncn2Cc2ccc(OC)cc2)N=CN(C)N1C` (stereo not drawn) the figure was 20 µM.
With `COc1ccc(Cn2cnc3c2C(OCc2cccc(C)c2)N(C)N(C)C=N3)cc1` (stereo not drawn), the affinity, expressed as Ki, was 93 µM.
Consider `COc1ccc(Cn2cnc3c2C(OC)N(C)N(C)C=N3)cc1` (stereo not drawn), for which the inhibition constant Ki was found to be 24 µM.
On to `COCCOC1c2c(ncn2Cc2ccc(OC)cc2)N=CN(C)N1C` (stereo not drawn), for which the affinity corresponds to a Ki of 23 µM.
In turn, `COc1ccc(Cn2cnc3c2C(OC(C)C)N(C)N(C)C=N3)cc1` (stereo not drawn) came in with a Ki of 30 µM.
`CCCCOC1c2c(ncn2Cc2ccc(OC)cc2)N=CN(C)N1C` (stereo not drawn) displayed a Ki of 15 µM.
